Results: patent US12662469B2 (SIRONAX LTD, priority 2018, dated 2026)
Read-outs that look alike come from different tables or passages of the source.

Test system: Cell Necrosis
Test: Cell necrosis assay / cell viability assay (necrosis inhibitor activity)
Type: cell-based
Conditions: necrosis inhibitor activity, read-out: EC50
[1] = EC data for 14-191 extrapolated

| Compound | EC50 [1] | EC50 (compounds outside 14-191) |
| --- | --- | --- |
| O=C(N1CC(Oc2ccc(F)cc2)C1)N1N=CCC1c1ccccc1 (centres unmarked) [Compound 62, (3-(4-fluorophenoxy)azetidin-1-yl)(5-phenyl-4,5-dihydro-1H-pyrazol-1-yl)methanone] | 1 to 1000 nM |  |
| O=C(N1CC(Oc2cccc(F)c2)C1)N1N=CCC1c1ccccc1 (centres unmarked) [Compound 61, (3-(3-fluorophenoxy)azetidin-1-yl)(5-phenyl-4,5-dihydro-1H-pyrazol-1-yl)methanone] | 1 to 1000 nM |  |
| C[C@H]1CN(c2ncc(F)cn2)CCN1C(=O)N1N=CCC1c1cccc(F)c1 (stereo partly drawn) [Compound 117A, ((S)-5-(3-fluorophenyl)-4,5-dihydro-H-pyrazol-1-yl)((S)-4-(5-fluoropyrimidin-2-yl)-2-methylpiperazin-1-yl)methanone] | 1 to 1000 nM |  |
| O=C(N1CC(Cc2ccc(Cl)cc2)C1)N1N=CCC1c1ccccc1 (centres unmarked) [Compound 49, (3-(4-chlorobenzyl)azetidin-1-yl)(5-phenyl-4,5-dihydro-1H-pyrazol-1-yl)methanone] | 1 to 1000 nM |  |
| O=C(N1CC[C@@H](Oc2ncc(F)cn2)C1)N1N=CCC1c1ccccc1 (stereo partly drawn) [Compound 34, ((R)-3-((5-fluoropyrimidin-2-yl)oxy)pyrrolidin-1-yl)(5-phenyl-4,5-dihydro-1H-pyrazol-1-yl)methanone] | 1000 to 10000 nM |  |
| O=C(O)c1cc2sc(OC3CN(C(=O)N4N=CC[C@H]4c4cc(F)cc(F)c4)C3)nc2[nH]1 [Compound 259, (S)-2-((1(5-(3,5-difluorophenyl)-4,5-dihydro-1H-pyrazole-1-carbonyl)azetidin-3-yl)oxy)-4H-pyrrolo[2,3-d]thiazole-5-carboxylic acid] |  | 1 to 1000 nM |
| N#Cc1cc(O[C@@H]2CCN(C(=O)N3N=CC[C@H]3c3cc(F)cc(F)c3)C2)ccc1F [Compound 342, 5-(((R)-1-((S)-5-(3,5-difluorophenyl)-4,5-dihydro-1H-pyrazole-1-carbonyl)pyrrolidin-3-yl)oxy)-2-fluorobenzonitrile] |  | 1 to 1000 nM |
| O=C(Nc1nccc(O[C@@H]2CCN(C(=O)N3N=CC[C@H]3c3cc(F)cc(F)c3)C2)n1)C1CC1 [Compound 369, N-(4-(((R)-1-((S)-5-(3,5-difluorophenyl)-4,5-dihydro-1H-pyrazole-1-carbonyl)pyrrolidin-3-yl)oxy)pyrimidin-2-yl)cyclopropanecarboxamide] |  | 1 to 1000 nM |
| O=C(N1CC(Cc2ccc(F)cc2)C1)N1OCC[C@H]1c1ccccc1 [Compound 79, (S)-(3-(4-fluorobenzyl)azetidin-1-yl)(3-phenylisoxazolidin-2-yl)methanone] | 1 to 1000 nM |  |
| CNC(=O)c1cccc(OC2CN(C(=O)N3N=CCC3c3cc(F)cc(F)c3)C2)c1Cl (centres unmarked) [Compound 164] | 1 to 1000 nM |  |
| O=C(N1CCN(c2ncc(F)c(OCCN3CCOCC3)n2)CC1)N1N=CC[C@H]1c1cc(F)cc(F)c1 [Compound 287, (S)-(5-(3,5-difluorophenyl)-4,5-dihydro-H-pyrazol-1-yl)(4-(5-fluoro-4-(2-morpholinoethoxy)pyrimidin-2-yl)piperazin-1-yl)methanone] |  | 1 to 1000 nM |
| O=C(NC1CCC1)N1N=CCC1c1ccccc1 (centres unmarked) [Compound 2, N-cyclobutyl-5-phenyl-4,5-dihydro-1H-pyrazole-1-carboxamide] |  | 1 to 1000 nM |
| O=C(N1CC/C(=C/c2ccccc2)C1)N1N=CCC1c1ccccc1 (centres unmarked) [Compound 58, (Z)-(3-benzylidenepyrrolidin-1-yl)(5-phenyl-4,5-dihydro-1H-pyrazol-1-yl)methanone] | 1 to 1000 nM |  |
| CC1Oc2ccc(OC3CN(C(=O)N4N=CC[C@H]4c4cc(F)cc(F)c4)C3)cc2NC1=O (stereo partly drawn) [Compound 353, 6-((1-((S)-5-(3,5-difluorophenyl)-4,5-dihydro-1H-pyrazole-1-carbonyl)azetidin-3-yl)oxy)-2-methyl-2H-benzo[b][1,4]oxazin-3(4H)-one] |  | 1 to 1000 nM |
| O=C(N1CC2(CCC2)C1)N1N=CCC1c1ccccc1 (centres unmarked) [Compound 3, (5-phenyl-4,5-dihydro-1H-pyrazol-1-yl)(2-azaspiro[3.3]heptan-2-yl)methanone] |  | 1 to 1000 nM |
| CNC(=O)c1cc(OC2CN(C(=O)N3N=CCC3c3cc(F)cc(F)c3)C2)ccc1F (centres unmarked) [Compound 162] | 1 to 1000 nM |  |
| O=C(N1CC(=Cc2ccc(F)nc2)C1)N1N=CCC1c1cncc(F)c1 (centres unmarked) [Compound 307, (5(5-fluoropyridin-3-yl)-4,5-dihydro-H-pyrazol-1-yl)(3-((6-fluoropyridin-3-yl)methylene)azetidin-1-yl)methanone] |  | 1 to 1000 nM |
| CC(C)C(=O)Nc1nc(N2CCN(C(=O)N3N=CC[C@H]3c3cc(F)cc(F)c3)CC2)ncc1F [Compound 292, (S)—N-(2-(4-(5-(3,5-difluorophenyl)-4,5-dihydro-1H-pyrazole-1-carbonyl)piperazin-1-yl)-5-fluoropyrimidin-4-yl)isobutyramide] |  | 1 to 1000 nM |
| O=C(N1CC(C(F)c2ccc(F)cc2F)C1)N1N=CCC1c1cc(F)cc(F)c1 (centres unmarked) [Compound 134, (5-(3,5-difluorophenyl)-4,5-dihydro-1H-pyrazol-1-yl)(3-((2,4-difluorophenyl)fluoromethyl)azetidin-1-yl)methanone] | 1 to 1000 nM |  |

| Compound | EC50 [1] | EC50 (compounds outside 14-191) |
| --- | --- | --- |
| O=C(NC1CCCCC1)N1N=CCC1c1ccccc1 (centres unmarked) [Compound 10, N-cyclohexyl-5-phenyl-4,5-dihydro-1H-pyrazole-1-carboxamide] |  | 1000 to 10000 nM |
| N#Cc1cccc([C@@H]2CC=NN2C(=O)N2CC(Oc3cc4c(cc3F)OCC(=O)N4)C2)c1 [Compound 195] |  | 1 to 1000 nM |
| O=C(N1CC(=Cc2cc3[nH]nc(F)c3cc2F)C1)N1N=CCC1c1ccccc1 (centres unmarked) [Compound 296, (3-((3,5-difluoro-1H-indazol-6-yl)methylene)azetidin-1-yl)(5-phenyl-4,5-dihydro-1H-pyrazol-1-yl)methanone] |  | 1 to 1000 nM |
| CCOC(=O)c1nc(OC2CN(C(=O)N3N=CC[C@H]3c3cc(F)cc(F)c3)C2)sc1Cl [Compound 272, ethyl (S)-5-chloro-2-((1-(5-(3,5-difluorophenyl)-4,5-dihydro-1H-pyrazole-1-carbonyl)azetidin-3-yl)oxy)thiazol-4-carboxylate] |  | 1 to 1000 nM |
| O=C(N1CC(Oc2nc(NCCO)ccc2F)C1)N1N=CC[C@H]1c1cc(F)cc(F)c1 [Compound 252, (S)(5-(3,5-difluorophenyl)-4,5-dihydro-1H-pyrazol-1-yl)(3-((3-fluoro-6-((2-hydroxyethyl)amino)pyridin-2-yl)oxy)azetidin-1-yl)methanone] |  | 1 to 1000 nM |
| O=C(N1CC(Oc2cc3[nH]nc(F)c3cc2F)C1)N1N=CCC1c1ccccc1 (centres unmarked) [Compound 379, (3-((3,5-difluoro-1H-indazol-6-yl)oxy)azetidin-1-yl)(5-phenyl-4,5-dihydro-1H-pyrazol-1-yl)methanone] |  | 1 to 1000 nM |
| O=C(N1CC(=Cc2cc(NCCN3CCOCC3)ccc2F)C1)N1N=CC[C@H]1c1cc(F)cc(F)c1 [Compound 371, (S)-(5-(3,5-difluorophenyl)-4,5-dihydro-1H-pyrazol-1-yl)(3-(2-fluoro-5-((2-morpholinoethyl)amino)benzylidene)azetidin-1-yl)methanone] |  | 1 to 1000 nM |
| N#Cc1cc(F)cc([C@@H]2CC=NN2C(=O)N2CC(Oc3ccc4c(c3)NC(=O)CO4)C2)c1 [Compound 198, (S)-3-fluoro-5-(1-(3-((3-oxo-3,4-dihydro-2H-benzo[b][1,4]oxazin-6-yl)oxy)azetidine-1-carbonyl)-4,5-dihydro-1H-pyrazol-5-yl)benzonitrile] |  | 1 to 1000 nM |
| O=C(N1CC(Oc2c(F)cc(F)cc2F)C1)N1N=CCC1c1cc(F)cc(F)c1 (centres unmarked) [Compound 126, (5-(3,5-difluorophenyl)-4,5-dihydro-1H-pyrazol-1-yl)(3-(2,4,6-trifluorophenoxy)azetidin-1-yl)methanone] | 1 to 1000 nM |  |
| CC(=C1CN(C(=O)N2N=CCC2c2ccccc2)C1)c1ccccc1 (centres unmarked) [Compound 123, (5-phenyl-4,5-dihydro-1H-pyrazol-1-yl)(3-(1-phenylethylidene)azetidin-1-yl)methanone] | 1 to 1000 nM |  |
| N#Cc1ccnc(OC2CN(C(=O)N3N=CC[C@H]3c3cc(F)cc(F)c3)C2)n1 [Compound 264, (S)-2-((1-(5-(3,5-difluorophenyl)-4,5-dihydro-1H-pyrazole-1-carbonyl)azetidin-3-yd)oxy)pyrimidine-4-carbonitrile] |  | 1 to 1000 nM |
| O=C(N1CC(=Cc2ccc(Cl)cc2F)C1)N1N=CCC1c1cc(F)cc(F)c1 (centres unmarked) [Compound 138] | 1 to 1000 nM |  |
| O=C(Nc1nc(N2CCN(C(=O)N3N=CC[C@H]3c3cc(F)cc(F)c3)CC2)ncc1F)C1CCOCC1 [Compound 293, (S)—N-(2-(4-(5-(3,5-difluorophenyl)-4,5-dihydro-1H-pyrazole-1-carbonyl)piperazin-1-yl)-5-fluoropyrimidin-4-yl)tetrahydro-2H-pyran-4-carboxamide] |  | 1 to 1000 nM |
| C[C@@H]1CN(c2ncc(F)cn2)C[C@H](C)N1C(=O)N1N=CCC1c1cc(F)cc(F)c1 (stereo partly drawn) [Compound 30, (5-(3,5-difluorophenyl)-4,5-dihydro-1H-pyrazol-1-yl)((2R,6S)-4-(5-fluoropyrimidin-2-yl)-2,6-dimethylpiperazin-1-yl)methanone] | 1 to 1000 nM |  |
| CNc1nc(N2CCN(C(=O)N3N=CC[C@H]3c3cc(F)cc(F)c3)CC2)ncc1F [Compound 303, (S)-(5-(3,5-difluorophenyl)-4,5-dihydro-1H-pyrazol-1-yl)(4-(5-fluoro-4-(methylamino)pyrimidin-2-yl)piperazin-1-yl)methanone] |  | 1 to 1000 nM |
| O=C(NC1CCN(c2ccc(F)cn2)C1)N1N=CCC1c1ccccc1 (centres unmarked) [Compound 23, N-(1-(5-fluoropyridin-2-yl)pyrrolidin-3-yl)-5-phenyl-4,5-dihydro-1H-pyrazole-1-carboxamide] | 1 to 1000 nM |  |
| O=C1CCc2ccc(OC3CN(C(=O)N4N=CC[C@H]4c4cc(F)cc(F)c4)C3)cc2N1 [Compound 206, (S)-7-((1-(5-(3,5-difluorophenyl)-4,5-dihydro-1H-pyrazole-1-carbonyl)azetidin-3-yl)oxy)-3,4-dihydroquinolin-2(1H)-one] |  | 1 to 1000 nM |
| N#Cc1cccc(OC2CN(C(=O)N3N=CCC3c3cc(F)cc(F)c3)C2)c1 (centres unmarked) [Compound 71, 3-((1-(5-(3,5-difluorophenyl)-4,5-dihydro-1H-pyrazole-1-carbonyl)azetidin-3-yl)oxy)benzonitrile] | 1 to 1000 nM |  |
| O=C(N1CCN(c2nccc(O)n2)CC1)N1N=CCC1c1ccccc1 (centres unmarked) [Compound 103, (4-(4-hydroxypyrimidin-2-yl)piperazin-1-yl)(5-phenyl-4,5-dihydro-1H-pyrazol-1-yl)methanone] | 1000 to 10000 nM |  |
